Calls of active or inactive are those of the source. The calls are words filed in the database; no cut-off is given here.
How the values were obtained:
Format in all cases: functional, organism-based
Human adenovirus D37 [1] = assay: Inhibition of 35S-labeled Human adenovirus 37 1477 virion binding to human HCE cells at 1:9 compound to PDA ratio formulation prepared by extrusion method after 1 hr by scintillation counting; details: Human mastadenovirus D, 1477, HCE
Human adenovirus D37 [2] = assay: Induction of Human adenovirus 37 1477 aggregation by negative staining transmission electron microscopy
Human adenovirus D37 [3] = assay: Antiviral activity against Human adenovirus 37 1477 in human HCE cells assessed as inhibition of viral infection to host cells after 44 hrs by immunofluorescence microscopic analysis; details: Human mastadenovirus D, 1477, HCE
Human adenovirus D37 [4] = assay: Inhibition of 35S-labeled Human adenovirus 37 1477 virion binding to human HCE cells at 1:9 compound to PDA ratio formulation prepared by probe sonication method after 1 hr by scintillation counting; details: Human mastadenovirus D, 1477, HCE
Human adenovirus D37 [5] = assay: Inhibition of 35S-labeled Human adenovirus 37 1477 virion binding to human HCE cells at 2:8 compound to PDA ratio formulation prepared by extrusion method after 1 hr by scintillation counting; details: Human mastadenovirus D, 1477, HCE
Human adenovirus D37 [6] = assay: Inhibition of 35S-labeled Human adenovirus 37 1477 virion binding to human HCE cells at 0.1:9.9 compound to PDA ratio formulation prepared by probe sonication method after 1 hr by scintillation counting; details: Human mastadenovirus D, 1477, HCE
Human adenovirus D37 [7] = assay: Inhibition of 35S-labeled Human adenovirus 37 1477 virion binding to human HCE cells at 0.5:9.5 compound to PDA ratio formulation prepared by probe sonication method after 1 hr by scintillation counting; details: Human mastadenovirus D, 1477, HCE
Human adenovirus D37 [8] = assay: Induction of 35S-labeled Human adenovirus 37 1477 aggregation by liquid scintillation counting

Which IC50 (Human adenovirus D37 [1]) does the source give for `CCCCCCCCCCCCCCCCCCCCCCCC(=O)NCCOCCOCCOCCOCCOCCC(=O)NCCCCCO[C@]1(C(=O)O)C[C@H](O)[C@@H](NC(C)=O)[C@H]([C@H](O)[C@H](O)CO)O1` here?
Its IC50 is 21 µM.

Which results are given for `CCCCCCCCCCCCC#CC#CCCCCCCCCC(=O)NCCOCCOCCOCCOCCOCCC(=O)NCCCCCO[C@]1(C(=O)O)C[C@H](O)[C@@H](NC(C)=O)[C@H]([C@H](O)[C@H](O)CO)O1`?
Activity (Human adenovirus D37 [2]): Active; IC50 (Human adenovirus D37 [3]): 0.7 µM; IC50 (Human adenovirus D37 [4]): 0.9 µM; IC50 (Human adenovirus D37 [5]): 26 µM; IC50 (Human adenovirus D37 [6]): > 5 µM; IC50 (Human adenovirus D37 [1]): 4 µM; IC50 (Human adenovirus D37 [7]): < 25 µM; Activity (Human adenovirus D37 [8]): Active

For `CCCCCCCCCCCCC#CC#CCCCCCCCCC(=O)NCCOCCOCCOCCOCCOCCOCCOCCOCCOCCOCCOCCOCCC(=O)NCCCCCO[C@]1(C(=O)O)C[C@H](O)[C@@H](NC(C)=O)[C@H]([C@H](O)[C@H](O)CO)O1`, which IC50 (Human adenovirus D37 [1]) is on record?
Its IC50 is 7 µM.

With `CCCCCCCCCCCCCCCCCC(=O)NCCOCCOCCOCCOCCOCCC(=O)NCCCCCO[C@]1(C(=O)O)C[C@H](O)[C@@H](NC(C)=O)[C@H]([C@H](O)[C@H](O)CO)O1` as the compound, how does the IC50 (Human adenovirus D37 [1]) read?
The IC50 was > 50 µM.

Which IC50 (Human adenovirus D37 [1]) does the source give for `CCCCCCCCCCCCC#CC#CCCCCCCCCC(=O)NCCOCCOCCOCCC(=O)NCCCCCO[C@]1(C(=O)O)C[C@H](O)[C@@H](NC(C)=O)[C@H]([C@H](O)[C@H](O)CO)O1` here?
The IC50 was > 50 µM.
